Experimental data: patent US9409866B2, “Pyridine-2-amides useful as CB2 agonists” (Hoffmann-La Roche Inc., priority 2012, dated 2016)
Like-named read-outs stand apart in the source and are kept apart here.

Key:
human CB2 receptors = human CB2 receptors (Homo sapiens (Human), UniProt P34972); experiment: functional cAMP assay, CHO cells expressing human CB2; type: cell-based
Summary of the method: (§1)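 Compound exposure lasted 30 min at 30 °C in IBMX (1 mM)-containing Krebs Ringer bicarbonate buffer, applied to human CB1- or CB2-expressing CHO cells. Lysates were read by time-resolved FRET cAMP detection, converted via cAMP standard curve (10 μM–0.13 nM), and EC50 values calculated.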

human CB1 receptors = human CB1 receptors (Homo sapiens (Human), UniProt P21554); experiment: functional cAMP assay, CHO cells expressing human CB1; type: cell-based
Summary of the method: as §1

[1] = functional cAMP assay, CHO cells expressing human CB1; read-out: Human CB1 EC50
[2] = read-out: Human CB1 EC50; functional cAMP assay, CHO cells expressing human CB1
[3] = Human CB1 EC50 (uM), functional cAMP assay, CHO cells expressing human CB1

Chain of human CB2 receptors (P34972 whole entry): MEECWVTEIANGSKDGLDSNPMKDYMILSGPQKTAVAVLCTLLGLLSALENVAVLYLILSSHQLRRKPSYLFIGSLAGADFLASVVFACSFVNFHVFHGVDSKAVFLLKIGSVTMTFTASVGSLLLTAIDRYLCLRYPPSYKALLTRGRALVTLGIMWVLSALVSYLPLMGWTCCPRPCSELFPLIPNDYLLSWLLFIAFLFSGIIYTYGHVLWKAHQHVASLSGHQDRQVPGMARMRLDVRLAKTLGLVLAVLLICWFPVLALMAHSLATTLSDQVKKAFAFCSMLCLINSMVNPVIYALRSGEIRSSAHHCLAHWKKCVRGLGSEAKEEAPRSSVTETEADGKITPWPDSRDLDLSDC
Chain of human CB1 receptors (P21554 whole entry): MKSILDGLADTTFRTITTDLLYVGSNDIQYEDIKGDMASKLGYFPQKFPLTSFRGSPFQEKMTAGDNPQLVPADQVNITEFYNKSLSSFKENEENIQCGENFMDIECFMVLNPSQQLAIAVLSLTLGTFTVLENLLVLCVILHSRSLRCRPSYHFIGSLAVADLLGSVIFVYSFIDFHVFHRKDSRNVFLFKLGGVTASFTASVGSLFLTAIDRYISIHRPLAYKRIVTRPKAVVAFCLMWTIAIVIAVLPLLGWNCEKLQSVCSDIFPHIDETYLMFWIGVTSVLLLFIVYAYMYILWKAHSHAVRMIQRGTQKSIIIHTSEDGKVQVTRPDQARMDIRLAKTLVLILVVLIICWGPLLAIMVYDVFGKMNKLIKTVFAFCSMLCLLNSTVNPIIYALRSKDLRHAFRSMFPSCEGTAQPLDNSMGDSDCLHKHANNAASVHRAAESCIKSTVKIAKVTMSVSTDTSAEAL

Compound | EC50 (human CB2 receptors; read-out: Human CB2 EC50) | EC50 (human CB1 receptors; [1]) | EC50 (human CB2 receptors; Human CB2 EC50 (uM)) | EC50 (human CB1 receptors; [2]) | EC50 (human CB1 receptors; [3])
CNC(=O)CC(C)(NC(=O)c1cc(O[C@@H](C)C(F)(F)F)c(C2CC2)cn1)C1CC1 (stereo partly drawn) [Example 247, 5-cyclopropyl-N-[2-cyclopropyl-4-(methylamino)-4-oxobutan-2-yl]-4-[(2S)-1,1,1-trifluoropropan-2-yl]oxypyridine-2-carboxamide] | 0.0193 µM | > 10 µM | – | – | –
Cc1nc(C(C)(CS(C)(=O)=O)NC(=O)c2cc(O[C@@H](C)C(F)(F)F)c(C3(F)CCC3)cn2)no1 (stereo partly drawn) [Example 130, 5-(1-fluorocyclobutyl)-N-[2-(5-methyl-1,2,4-oxadiazol-3-yl)-1-methylsulfonylpropan-2-yl]-4-[(2S)-1,1,1-trifluoropropan-2-yl]oxypyridine-2-carboxamide] | 0.0234 µM | > 10 µM | – | – | –
Cc1nc(C(C)(NC(=O)c2cc(O[C@@H](C)C(F)(F)F)c(C3CC3)cn2)C2CC2)no1 (single isomer, unassigned; epimer a) [Example 68] | 0.00395 µM | > 10 µM | – | – | –
Cc1nc(C(C)(CC(C)(C)C)NC(=O)c2cc(OCC(F)(F)F)c(Cl)cn2)no1 (centres unmarked) [Example 83, 5-Chloro-4-(2,2,2-trifluoro-ethoxy)-pyridine-2-carboxylic acid [1,3,3-trimethyl-1-(5-methyl-[1,2,4]oxadiazol-3-yl)-butyl]-amide] | 0.025 µM | > 10 µM | – | – | –
Cc1nc(C(C)(CC2CC2)NC(=O)c2cc(OCC(F)(F)F)c(C3(F)COC3)cn2)no1 (centres unmarked) [Example 131, N-[1-cyclopropyl-2-(5-methyl-1,2,4-oxadiazol-3-yl)propan-2-yl]-5-(3-fluorooxetan-3-yl)-4-(2,2,2-trifluoroethoxy)pyridine-2-carboxamide] | 0.0263 µM | > 10 µM | – | – | –
Cc1nc(C(C)(COCc2ccccc2)NC(=O)c2cc(OCC(F)(F)F)c(C3CC3)cn2)no1 (centres unmarked) [Example 112, 5-cyclopropyl-N-[2-(5-methyl-1,2,4-oxadiazol-3-yl)-1-phenylmethoxypropan-2-yl]-4-(2,2,2-trifluoroethoxy)pyridine-2-carboxamide] | 0.0436 µM | > 10 µM | – | – | –
C[C@H](Oc1cc(C(=O)NC(c2noc(N)n2)C(C)(C)C)ncc1C1CC1)C(F)(F)F (stereo partly drawn) [Example 219, N-[1-(5-amino-1,2,4-oxadiazol-3-yl)-2,2-dimethylpropyl]-5-cyclopropyl-4-[(2S)-1,1,1-trifluoropropan-2-yl]oxypyridine-2-carboxamide] | 0.001 µM | > 10 µM | – | – | –
Cc1nc(C(C)(CS(C)(=O)=O)NC(=O)c2cc(OCC(F)(F)F)c(C3CCC3)cn2)no1 (single isomer, unassigned) [Example 125, 5-cyclobutyl-N-[1-methyl-1-(5-methyl-1,2,4-oxadiazol-3-yl)-2-methylsulfonyl-ethyl]-4-(2,2,2-trifluoroethoxy)pyridine-2-carboxamide] | – | – | 0.011 µM | > 10 µM | –
CC(CC(N)=O)(NC(=O)c1cc(OCC(F)(F)F)c(C2CC2)cn1)C1CC1 (single isomer, unassigned) [Example 244, N-[4-amino-2-cyclopropyl-4-oxobutan-2-yl]-5-cyclopropyl-4-(2,2,2-trifluoroethoxy)pyridine-2-carboxamide] | – | – | 0.0284 µM | > 10 µM | –
C[C@H](Oc1cc(C(=O)NC(C)(CC(N)=O)C2CC2)ncc1C1CC1)C(F)(F)F (stereo partly drawn) [Example 259, N-(4-amino-2-cyclopropyl-4-oxobutan-2-yl)-5-cyclopropyl-4-[(2S)-1,1,1-trifluoropropan-2-yl]oxypyridine-2-carboxamide] | 0.0005 µM | > 10 µM | – | – | –
Cc1nc(C(C)(NC(=O)c2cc(O[C@@H](C)C(F)(F)F)c(C3CC3)cn2)C2CC2)no1 (single isomer, unassigned; epimer b) [Example 69] | 0.00025 µM | 0.015 µM | – | – | –
C[C@H](Oc1cc(C(=O)NC(c2noc(N)n2)C(C)(C)C)ncc1C1CC1)C(F)(F)F (stereo partly drawn) [Example 218, N-[1-(5-amino-1,2,4-oxadiazol-3-yl)-2,2-dimethylpropyl]-5-cyclopropyl-4-[(2S)-1,1,1-trifluoropropan-2-yl]oxypyridine-2-carboxamide] | 0.0068 µM | > 10 µM | – | – | –
Cc1nc(C(C)(CS(C)(=O)=O)NC(=O)c2cc(OCCF)c(C3CC3)cn2)no1 (single isomer, unassigned) [Example 279, 5-cyclopropyl-4-(2-fluoroethoxy)-N-[2-(5-methyl-1,2,4-oxadiazol-3-yl)-1-methylsulfonylpropan-2-yl]pyridine-2-carboxamide] | – | – | 0.173 µM | – | > 10 µM
Cc1nc(C(C)(CC2CC2)NC(=O)c2cc(OCC(F)(F)F)c(C3(F)COC3)cn2)no1 (single isomer, unassigned) [Example 135, N-[1-cyclopropyl-2-(5-methyl-1,2,4-oxadiazol-3-yl)propan-2-yl]-5-(3-fluorooxetan-3-yl)-4-(2,2,2-trifluoroethoxy)pyridine-2-carboxamide] | – | – | 0.144 µM | – | > 10 µM
CC1(C(NC(=O)c2cc(OCC(F)(F)F)c(C3CC3)cn2)C(N)=O)COC1 (single isomer, unassigned) [Example 268, N-[2-amino-1-(3-methyloxetan-3-yl)-2-oxoethyl]-5-cyclopropyl-4-(2,2,2-trifluoroethoxy)pyridine-2-carboxamide] | – | – | 0.225 µM | – | > 10 µM
CC(CF)Oc1cc(C(=O)NC(C)(CC(N)=O)C2CC2)ncc1C1CC1 (centres unmarked) [Example 293, N-(4-amino-2-cyclopropyl-4-oxobutan-2-yl)-5-cyclopropyl-4-(1-fluoropropan-2-yloxy)picolinamide] | 0.0013 µM | > 10 µM | – | – | –
Cc1nnc(C(C)(CC2CC2)NC(=O)c2cc(O[C@@H](C)C(F)(F)F)c(C3(F)COC3)cn2)o1 (stereo partly drawn) [Example 176, N-[1-cyclopropyl-2-(5-methyl-1,3,4-oxadiazol-2-yl)propan-2-yl]-5-(3-fluorooxetan-3-yl)-4-[(2S)-1,1,1-trifluoropropan-2-yl]oxypyridine-2-carboxamide] | 0.443 µM | > 10 µM | – | – | –
CNC(=O)CC(C)(NC(=O)c1cc(OCC(F)(F)F)c(C2CC2)cn1)C1CC1 (centres unmarked) [Example 229, 5-cyclopropyl-N-[2-cyclopropyl-4-(methylamino)-4-oxobutan-2-yl]-4-(2,2,2-trifluoroethoxy)pyridine-2-carboxamide] | 0.0114 µM | > 10 µM | – | – | –
CNC(=O)C(C)(NC(=O)c1cc(OCC(F)(F)F)c(C2CC2)cn1)c1noc(C)n1 (centres unmarked) [Example 149, 5-cyclopropyl-N-[1-(methylamino)-2-(5-methyl-1,2,4-oxadiazol-3-yl)-1-oxopropan-2-yl]-4-(2,2,2-trifluoroethoxy)pyridine-2-carboxamide] | 0.0127 µM | > 10 µM | – | – | –
NC(=O)CC1(NC(=O)c2cc(OCC(F)(F)F)c(C3CC3)cn2)CS(=O)(=O)C1 [Example 160, N-[3-(2-amino-2-oxoethyl)-1,1-dioxothietan-3-yl]-5-cyclopropyl-4-(2,2,2-trifluoroethoxy)pyridine-2-carboxamide] | 0.0118 µM | > 10 µM | – | – | –
C[C@H](Oc1cc(C(=O)NC(C(=O)N(C)C)C(C)(C)C)ncc1C1CC1)C(F)(F)F (stereo partly drawn) [Example 201, 5-cyclopropyl-N-[1-(dimethylamino)-3,3-dimethyl-1-oxobutan-2-yl]-4-[(2S)-1,1,1-trifluoropropan-2-yl]oxypyridine-2-carboxamide] | 0.0024 µM | > 10 µM | – | – | –
CC(CF)Oc1cc(C(=O)NC(C)(CC(N)=O)C2CC2)ncc1C1CC1 (centres unmarked) [Example 294, N-(4-amino-2-cyclopropyl-4-oxobutan-2-yl)-5-cyclopropyl-4-(1-fluoropropan-2-yloxy)picolinamide] | 0.0006 µM | > 10 µM | – | – | –
NC(=O)CC1(NC(=O)c2cc(OCC(F)F)c(C3(F)CCC3)cn2)CS(=O)(=O)C1 [Example 308, N-[3-(2-amino-2-oxoethyl)-1,1-dioxothietan-3-yl]-4-(2,2-difluoroethoxy)-5-(1-fluorocyclobutyl)pyridine-2-carboxamide] | 0.073 µM | > 10 µM | – | – | –
C[C@H](Oc1cc(C(=O)NC(C)(CC(N)=O)C2CC2)ncc1C1CC1)C(F)(F)F (stereo partly drawn) [Example 248, N-(4-amino-2-cyclopropyl-4-oxobutan-2-yl)-5-cyclopropyl-4-[(2S)-1,1,1-trifluoropropan-2-yl]oxypyridine-2-carboxamide] | 0.0009 µM | > 10 µM | – | – | –
Cc1cnc(C(C)(CC2CC2)NC(=O)c2cc(OCC(F)(F)F)c(C3CC3)cn2)s1 (centres unmarked) [Example 177, 5-cyclopropyl-N-[1-cyclopropyl-2-(5-methyl-1,3-thiazol-2-yl)propan-2-yl]-4-(2,2,2-trifluoroethoxy)pyridine-2-carboxamide] | 0.0124 µM | > 10 µM | – | – | –
Cc1nc(C(C)(CS(C)(=O)=O)NC(=O)c2cc(OC(C)CF)c(C3CC3)cn2)no1 (single isomer, unassigned) [Example 295, 5-cyclopropyl-4-(1-fluoropropan-2-yloxy)-N-(2-(5-methyl-1,2,4-oxadiazol-3-yl)-1-(methylsulfonyl)propan-2-yl)picolinamide] | – | – | 0.0024 µM | – | > 10 µM
Cc1nc(C(C)(NC(=O)c2cc(O[C@@H](C)C(F)(F)F)c(C3(F)COC3)cn2)C2CC2)no1 (stereo partly drawn) [Example 144, N-[1-cyclopropyl-1-(5-methyl-1,2,4-oxadiazol-3-yl)ethyl]-5-(3-fluorooxetan-3-yl)-4-[(2S)-1,1,1-trifluoropropan-2-yl]oxypyridine-2-carboxamide] | 0.0141 µM | > 10 µM | – | – | –
CC(CC1CC1)(NC(=O)c1cc(OCC(F)(F)F)c(C2CC2)cn1)c1nnn[nH]1 (centres unmarked) [Example 159, 5-cyclopropyl-N-[1-cyclopropyl-2-(1H-tetrazol-5-yl)propan-2-yl]-4-(2,2,2-trifluoroethoxy)pyridine-2-carboxamide] | 0.935 µM | > 10 µM | – | – | –
